Experiments:
Rattus norvegicus [1] = organism: Rattus norvegicus; test: Compound was evaluated for its hypotensive activity (decrease in blood pressure) in normotensive rats.; assay type: functional
Cavia porcellus [2] = organism: Cavia porcellus; test: Compound was evaluated for its hypotensive activity (decrease in blood pressure) in male guinea pigs.; assay type: functional
Cavia porcellus [3] = test: Compound was evaluated in vivo for its ability to inhibit methacholine induced bronchospasm in male guinea pig.; assay type: functional
Rattus norvegicus [4] = test: Changes in systolic blood pressure was measured at intervals of 1 hr for 4 hr after oral administration of 0.1 mg/kg in rats; assay type: functional, Artery
Rattus norvegicus [5] = organism: Rattus norvegicus; test: Concentration required to inhibit NA-induced contractions in rat portal vein by 50%; assay type: functional
Cavia porcellus [6] = organism: Cavia porcellus; test: Concentration required to inhibit spontaneous tone of guinea pig isolated tracheal spirals; assay type: functional; conditions: Trachea
Rattus norvegicus [7] = organism: Rattus norvegicus; test: Percent inhibition of NA-induced contractions in rat portal vein at 10 uM was evaluated; assay type: functional; conditions: for inhibition at 10 µM: Rattus norvegicus

SMILES	ED25 (Rattus norvegicus [1]) [mg/kg]	ED25 (Cavia porcellus [2]) [mg/kg]	ED50 (Cavia porcellus [3]) [mg/kg]	Max fall in blood pressure (Rattus norvegicus [4]) [mmHg]	IC50 (Rattus norvegicus [5]) [nM]	IC50 (Cavia porcellus [6]) [nM]	ED25 (Cavia porcellus [3]) [mg/kg]	inhibition at 10 µM (Rattus norvegicus [7]) [%]	Inhibition (Rattus norvegicus [7]) [%]
CC1(C)C=C(c2cccc[n+]2[O-])c2cc(Cl)c(Cl)cc2C1=O	0.079	0.0933	0.0912	74	470	210	–	–	–
CC1(C)C=C(c2cccc[n+]2[O-])c2cc(C(F)(F)C(F)(F)F)ccc2C1=O	0.776	0.0876	–	–	590	110	0.036	–	–
CC1(C)C=C(c2ccccn2)c2cc(Br)ccc2C1=O	–	–	–	–	48000	> 10000	–	–	–
CC1(C)CC(O)(c2cccc[n+]2[O-])c2cc(C#N)ccc2C1=O (stereo not drawn)	–	–	–	–	–	7300	–	30	–
CC1(C)C=C(c2cccc[n+]2[O-])c2cc(Br)ccc2C1=O	0.0877	0.0891	0.148	53	810	230	–	–	–
COC1(c2cccc[n+]2[O-])CC(C)(C)C(=O)c2ccc(Br)cc21 (stereo not drawn)	–	–	–	–	–	> 10000	–	20	–
CC1(C)CC(c2cccc[n+]2[O-])c2cc(C#N)ccc2C1=O (stereo not drawn)	–	–	–	99.5	160	2500	–	–	–
CC1(C)C(=O)c2ccc(Br)cc2C2(c3cccc[n+]3[O-])OC12 (stereo not drawn)	–	–	–	–	–	1700	–	–	12
CC1(C)C=C(c2cccc[n+]2[O-])c2cc(C#N)ccc2C1=O	0.079	0.0647	–	–	900	200	0.0303	–	–
CC1(C)Oc2ccc(C#N)cc2[C@H](N2CCCC2=O)[C@H]1O (single isomer, unassigned) [(-)-CROMAKALIM]	0.0215	0.0075	–	–	100	280	0.0162	–	–

Reference: ChEMBL document CHEMBL1149931, “4-(2-pyridyl)-2,2-dimethylnaphthalen-1-ones as new potassium channel activators with increased airways selectivity” (Bioorg Med Chem Lett, 1995)
